Legend:
[1] = tested on: total hippocampal proteins; assay: Fractional synthesis of total hippocampal proteins; assay type: in vivo, mouse; details: glutamate ICVC vs mock-treated animals
Procedure: (§1) FIG. 7 depicts the effects of ICV glutamate on the relative amounts of MT subpopulations and on total protein synthesis in murine hippocampus. (A, B) Tubulin abundances are measured by Western blot analysis for α-tubulin at 8 hour (A) and 24 hours (B). Subpopulations were total extract (total), free tubulin dimers, tau-associated MTs, tau-nonassociated (MAP2/STOP) MTs and cold stable (CS) MTs. Mock and glutamate infused ICVC mice are shown (cf. FIGS. 6A and B). […] (C) Fractional synthesis of total hippocampal proteins. Glutamate increased protein synthesis versus mock-treated animals (*p<0.01); this effect was blocked by coadministration with 0.66 pmol of Rp-cAMP (**p<0.02).
This hypothesis had not previously been tested in the living brain, however. To test this hypothesis, we used the methods of the invention disclosed herein. Mice were infused with 6 μl water containing 0.48 nmol glutamate (80 μM in the infusate), or glutamate plus 0.66 pmol Rp-cAMP (110 nM in the infusate). Label incorporation into hippocampal tubulin dimers and into microtubule polymers was then quantified after administration of ^2H2O for 8 hours or 24 hours (FIGS. 7A and 7B). […] These findings further strengthen the previously reported correlation between hippocampus glutamate NMDA receptor-dependent learning (long-term potentiation) and protein synthesis (Kandel, E. R. The molecular biology of memory storage: a dialogue between genes and synapses. Science 294, 1030-1038 (2001)). By the same criterion, the glutamate-induced program of changes in hippocampal microtubule dynamics shown in FIGS. 6 and 7 also alters hippocampal total protein synthesis in vivo (data not show), further supporting the capacity of the invention disclosed herein to generate a biochemical record of basic neuroanatomic connectivity in the brain and thereby to reveal the dynamics of synaptogenesis in vivo.

[2] = tested on: hippocampal MT subpopulations; assay: Tubulin abundance of MT subpopulations in hippocampus by Western blot for α-tubulin; assay type: in vivo, mouse; details: 0.48 nmol glutamate ICVC; 24 hours; vs mock
Procedure: as §1
Tubulin was purified using minor modifications of protocols described previously (Fanara, P., Oback, B., Ashman, K., Podtelejnikov, A., Brandt, R. Identification of MINUS, a small polypeptide that functions as a microtubule nucleation suppressor. EMBO J. 18, 565-577 (1999); Fanara, P. et al. In vivo measurement of microtubule dynamics using stable isotope labeling with heavy water. Effect of taxanes. J. Biol. Chem. 279, 49940-49947 (2004). Briefly, cultured neurons were gently scraped off culture plates, washed in phosphate-buffered saline (PBS), and homogenized in microtubule-stabilizing buffer. For purification ex vivo, mice were anesthetized with isoflurane and euthanized by cervical dislocation. Brains were rapidly removed and washed in microtubule-stabilizing buffer (MSB); hippocampi were dissected and gently homogenized in MSB. […] The relative abundance of tubulin in each preparation (Tubulin dimers and TAU5-bound, MAP2-bound, and unbound microtubule fractions) was quantified by Western blot, and tubulin from these fractions was further purified by ion exchange and size exclusion chromatography, as previously described (Fanara, P. et al. In vivo measurement of microtubule dynamics using stable isotope labeling with heavy water. Effect of taxanes. J. Biol. Chem. 279, 49940-49947 (2004)).

primary rat neurons = assay: Microtubule dynamics in glutamate-stimulated cultures of primary rat neurons; assay type: cell-based; details: parallel experiments, data not shown
Procedure: Rat brain hippocampus neuronal cells were obtained from Cambrex Bio Science (Walkersville, Md.). The neurons were grown in Neurobasal medium supplemented with 2 mM Glutamine, 100 U/ml penicillin/streptomycin- and 2% B27 in a humidified atmosphere of 10% CO2 at 37° C. for 14 days on a poly-D-lysine and laminin coated 10 cm^2 tissue culture dish.
During experimental manipulation of neural connectivity, the dynamic responses of dendritic microtubules to various stimuli are likely to differ from those of axonal shafts or of the cell body. In order to detect such differential responses by use of the invention disclosed herein, we cultured primary neurons from rat brain hippocampi and labeled newly synthesized tubulin by adding 5% ^2H2O in culture media for 24 hours. After separation of tubulin dimers and polymers in cytosolic extracts, we captured axonal growth cone and dendritic microtubules by sequential binding to immunoaffinity columns reactive with tau and MAP2, respectively, leaving only somatic and axonal shaft microtubules in the unbound fraction (FIG. 5A). Tubulin was purified further from each fraction, and label incorporation into Ala was measured by GC/MS (FIG. 5B). […] Free Ala in culture media was >80% equilibrated with ^2H2O (not shown). […]

In the case of `N[C@@H](CCC(=O)[O-])C(=O)[O-].[K+].[K+]` [glutamate, potassium L-glutamate], the “fractional synthesis of total hippocampal proteins” value [1] is reported as “alters”, the “fractional synthesis of total hippocampal proteins” value ([1]; listed as Glutamate) is reported as “increased” and the “abundance of CS-MTs, Western blot” value [2] is reported as “increased”. The “abundance of MAP2/STOP-MTs (MAP2-associated microtubules), Western blot” value [2] was “increased”, the “abundance of tau-MTs, Western blot” value [2] was “remained unchanged” and the “microtubule label incorporation pattern compared with in vivo” value (primary rat neurons) was “identical results”.
